# No end group written: not given here.
# Tests used:
# [1] = Influence of sample processing time: serum kept at 4°C before freezing at -80°C, sandwich ELISA; format: in vitro ADME, human
# Procedure: (§1) We tested 4 different ELISA kit references with serum samples, 2 based on competitive ELISA (Biorbyt, UK, ref: orb438605; BMA Biomedicals, Switzerland, ref: S-1198), specifically designed for the detection of total-CGRP, and 2 based on ELISA sandwich (Abbexa, UK, ref: abx257902; CUSABIO, China, ref: CSB-E08210h), designed for the detection of alpha and beta-CGRP, respectively. All 4 of these products were assayed multiple times (at least 4 for each kit reference) to analyse the optimal dilutions of the samples, their reproducibility and their reported concentrations. All the procedures were carried out strictly following the manufacturer’s instructions of use of their products, they were performed by the same researcher, using the same equipment, and in the same facilities. […] All the samples were measured in duplicate, obtained from morning blood extractions, 9–12 am, from patients in a fast of at least 12h. These samples were let to clot for 10–15 min, centrifuged at 3500 rpm for 10 min and then immediately stored at -80°C until assayed. A standard curve was generated for every single batch, and they were calculated using a 4-parameter logistic (4-PL) regression with r^2 > 0.999.
# We recruited 6 individuals without history of migraine and subjective absence of headache at the day of the sampling (50% male; age range: 24–65 years). […] The blood was then let to clot for 10 min at room temperature, then centrifuged at 3500 rpm for 10 min to obtain serum. Serum was divided into 4 tubes. First one was immediately stored at -80°C, the other three were kept in the refrigerator at 4°C for, 2, 4 and 24 h respectively before frozen. None of the samples were added peptidase inhibitor. These samples were measured by triplicate.
# [2] = infused in humans; cited from earlier work
# From the text: The relevance of the peptide goes beyond its use as a therapeutical target, having been proposed as a biomarker in migraine.
# [3] = frozen samples; cited from earlier work
# From the text: Another point recurrently mentioned in the literature is the long-term stability of the molecules when frozen. […] This opens up the question about whether c ...
# [4] = Long-term storage of serum at -80°C, sandwich ELISA; format: in vitro ADME; settings: human serum
# Procedure: as §1
# We assayed 11 consecutive samples from previous works (36.4% male; age range: 26–65) that had been stored at -80°C for more than 6 months and which had been assayed altogether before being stored for a month and before reaching this time point.
# [5] = system: CGRP; set-up: method as in PMID 8388188; settings: 8 migraineurs, ictal, subcutaneous sumatriptan, mean ± SE; pre-treatment 60 ± 8; cited from earlier work
# [6] = system: CGRP; set-up: method as in PMID 15689192; settings: MWA, ictal, cited from earlier work
# [7] = system: CGRP; settings: mean ± SEM, cited from earlier work
# [8] = system: CGRP; set-up: method as in PMID 16472331; settings: MWA, mean ± SEM, cited from earlier work
# [9] = system: CGRP; settings: cited from earlier work; for plasma CGRP 4 months after treatment cessation (V2), median (IQR) / plasma CGRP at last injection (V1), median (IQR): EM and CM patients, controls 32.6(21.3–44.6)
# From the text: Table 1 Charasteristics of the studies measuring CGRP in migraine patients | column: Concentrations
# [10] = system: CGRP; settings: 32 MWA; exact values not displayed; cited from earlier work
# From the text: Table 1 Charasteristics of the studies measuring CGRP in migraine patients | column: Main findings relate to CGRP
# [11] = EM without aura, mean ± SD, T0 86.9 ± 24.1
# [12] = healthy controls, mean ± SD, T0 87.9 ± 21.3
molecule,measurement,setting,value
Calcitonin gene-related peptide [CGRP],CGRP content in serum stored at 4°C,[1]; first 24 h at 4°C after clotting and immediate centrifugation,preserved
same,effect of infusion in humans,[2],induction of migraine-like headaches
same,effect of frozen storage of 8 months on CGRP concentration,[3],significantly decrease
same,effect of storage at -80°C of more than 6 months on CGRP levels,[4],decrease
"beta-CGRP: endogenous neuropeptide encoded in CALCB, differs from alpha-CGRP in 3 of 37 amino acids",serum concentration after 2 h at 4°C,"[1]; human serum, no peptidase inhibitor, 2 h at 4°C before -80°C, ELISA Abbexa (alpha) / CUSABIO (beta), mean ± SD, 6 subjects, triplicate",4.9 ± 1.7 pg/mL
same,serum concentration after 4 h at 4°C,"[1]; human serum, no peptidase inhibitor, 4 h at 4°C before -80°C, ELISA Abbexa (alpha) / CUSABIO (beta), mean ± SD, 6 subjects, triplicate",4.7 ± 1.5 pg/mL
same,serum concentration after 24 h at 4°C,"[1]; human serum, no peptidase inhibitor, 24 h at 4°C before -80°C, ELISA Abbexa (alpha) / CUSABIO (beta), mean ± SD, 6 subjects, triplicate",4.4 ± 1.8 pg/mL
same,"serum concentration, deep frozen right away","[1]; human serum, no peptidase inhibitor, clot 10 min RT, 3500 rpm 10 min, immediately -80°C, ELISA Abbexa (alpha) / CUSABIO (beta), mean ± SD, 6 subjects, triplicate",4.6 ± 1.6 pg/mL
same,"serum concentration, measured before one month of storage at -80°C","[4]; 11 samples, ELISA Abbexa (alpha) / CUSABIO (beta), mean ± SD",4.9 ± 2.0 pg/mL
same,serum concentration after more than 6 months of storage at -80°C,"[4]; same 11 samples, ELISA Abbexa (alpha) / CUSABIO (beta), mean ± SD, p < 0.01 vs first measurement",3.0 ± 1.3 pg/mL
CNS(=O)(=O)Cc1ccc2[nH]cc(CCN(C)C)c2c1 [sumatriptan],plasma (JV) CGRP post-treatment,[5],40 pmol/L
same,"plasma CGRP 1 h after sumatriptan, responders","[6]; n = 6, mean ± SEM, before 16.9 ± 2.8",14.7 pmol/L
same,"plasma CGRP 1 h after sumatriptan, non-responders","[6]; n = 13, mean ± SEM, before 24.3 ± 2.5",23.8 pmol/L
"O=[N+]([O-])OCC(CO[N+](=O)[O-])O[N+](=O)[O-] [nitroglyceri, nitroglycerin]","plasma CGRP, controls T1",[7]; basal 15.1 ± 2.0,17.5 pmol/L
same,"plasma CGRP, controls T2",[7]; basal 15.1 ± 2.0,16.5 pmol/L
same,"plasma CGRP, controls T3",[7]; basal 15.1 ± 2.0,15.3 pmol/L
same,"plasma CGRP, migraineurs T1",[7]; basal 18.4 ± 1.7,19.7 pmol/L
same,"plasma CGRP, migraineurs T2",[7]; basal 18.4 ± 1.7,22.2 pmol/L
same,"plasma CGRP, migraineurs T3",[7]; basal 18.4 ± 1.7,21.0 pmol/L
CN(C)CCc1c[nH]c2ccc(Cn3cncn3)cc12 [rizatriptan],"plasma (JV) CGRP, non-responders 1 h",[8]; before rizatriptan 7.4 ± 2.4,7.6 pmol/L
same,"plasma (JV) CGRP, non-responders 2 h",[8]; before rizatriptan 7.4 ± 2.4,7.9 pmol/L
same,"plasma (JV) CGRP, non-responders 4 h",[8]; before rizatriptan 7.4 ± 2.4,7.7 pmol/L
same,"plasma (JV) CGRP, non-responders 6 h",[8]; before rizatriptan 7.4 ± 2.4,7.3 pmol/L
same,"plasma (JV) CGRP, non-responders 12 h",[8]; before rizatriptan 7.4 ± 2.4,7.2 pmol/L
same,"plasma (JV) CGRP, responders 1 h",[8]; before rizatriptan 12.2 ± 3.2,7.6 pmol/L
same,"plasma (JV) CGRP, responders 2 h",[8]; before rizatriptan 12.2 ± 3.2,3.4 pmol/L
same,"plasma (JV) CGRP, responders 4 h",[8]; before rizatriptan 12.2 ± 3.2,2.6 pmol/L
same,"plasma (JV) CGRP, responders 6 h",[8]; before rizatriptan 12.2 ± 3.2,2.3 pmol/L
same,"plasma (JV) CGRP, responders 12 h",[8]; before rizatriptan 12.2 ± 3.2,2.1 pmol/L
"Vasoactive intestinal peptide (HSDAVFTDNYTRLRKQMAVKKYLNSILN; ends and bridges not checked; UniProt P01282 125-152, looked up) [VIP]","plasma CGRP, VIP infusion Migraine T30",[9]; [11],94.2 pg/mL
same,"plasma CGRP, VIP infusion Migraine T60",[9]; [11],95.1 pg/mL
same,"plasma CGRP, VIP infusion Migraine T90",[9]; [11],87.5 pg/mL
same,"plasma CGRP, VIP infusion Migraine T120",[9]; [11],88.7 pg/mL
same,"plasma CGRP, VIP infusion Migraine T150",[9]; [11],85.1 pg/mL
same,"plasma CGRP, VIP infusion Migraine T180",[9]; [11],83.3 pg/mL
same,"plasma CGRP, VIP infusion HC T30",[9]; [12],102.1 pg/mL
same,"plasma CGRP, VIP infusion HC T60",[9]; [12],109.3 pg/mL
same,"plasma CGRP, VIP infusion HC T90",[9]; [12],104.1 pg/mL
same,"plasma CGRP, VIP infusion HC T120",[9]; [12],110.1 pg/mL
same,"plasma CGRP, VIP infusion HC T150",[9]; [12],97.8 pg/mL
same,"plasma CGRP, VIP infusion HC T180",[9]; [12],98.2 pg/mL
"Pituitary adenylate cyclase activating peptide-38 (HSDGIFTDSYSRYRKQMAVKKYLAAVLGKRYKQRVKNK; ends and bridges not checked; UniProt P18509 132-169, looked up) [PACAP38]",effect of PACAP38 infusion on CGRP concentrations,[10],PACAP38 infusion do not causes changes in CGRP concentrations
"Galcanezumab: anti-CGRP monoclonal antibody (antibody, chains of the INN, looked up, V domains shown) VH: QVQLVQSGAEVKKPGSSVKVSCKASGYTFGNYWMQWVRQAPGQGLEWMGAIYEGTGKTVYIQKFADRVTITADKSTSTAYMELSSLRSEDTAVYYCARLSDYVSGFGYWGQGTTVTVSS VL: DIQMTQSPSSLSASVGDRVTITCRASKDISKYLNWYQQKPGKAPKLLIYYTSGYHSGVPSRFSGSGSGTDFTLTISSLQPEDFATYYCQQGDALPPTFGGGTKVEIK","plasma CGRP 4 months after treatment cessation (V2), median (IQR)",[9],1853.2 pg/mL
same,"plasma CGRP at last injection (V1), median (IQR)",[9],5439.3 pg/mL
"Erenumab: anti-CGRP(-receptor) monoclonal antibody (antibody, chains of the INN, looked up, V domains shown) VH: QVQLVESGGGVVQPGRSLRLSCAASGFTFSSFGMHWVRQAPGKGLEWVAVISFDGSIKYSVDSVKGRFTISRDNSKNTLFLQMNSLRAEDTAVYYCARDRLNYYDSSGYYHYKYYGMAVWGQGTTVTVSS VL: QSVLTQPPSVSAAPGQKVTISCSGSSSNIGNNYVSWYQQLPGTAPKLLIYDNNKRPSGIPDRFSGSKSGTSTTLGITGLQTGDEADYYCGTWDSRLSAVVFGGGTKLTVL","serum CGRP at T1, median (IQR)","[9]; 94 erenumab treated EM and CM, basal 14.1 (8.2–33.9)",13.8 pg/mL
same,"plasma CGRP 4 months after treatment cessation (V2), median (IQR)",[9],30.3 pg/mL
same,"plasma CGRP at last injection (V1), median (IQR)",[9],31.2 pg/mL
same,"salivary CGRP at M3, EM without depression","[9]; mean ± SD, basal 198.90 ± 27.89",235.05 pg/mL
same,"salivary CGRP at M3, CM with depression","[9]; n = 6, mean ± SD, basal 460.69 ± 57.24",446.99 pg/mL
same,"salivary CGRP at M3, CM without depression","[9]; n = 10, mean ± SD, basal 194.34 ± 43.75",256.34 pg/mL
"Fremanezumab: anti-CGRP monoclonal antibody (antibody, chains of the INN, looked up, V domains shown) VH: EVQLVESGGGLVQPGGSLRLSCAASGFTFSNYWISWVRQAPGKGLEWVAEIRSESDASATHYAEAVKGRFTISRDNAKNSLYLQMNSLRAEDTAVYYCLAYFDYGLAIQNYWGQGTLVTVSS VL: EIVLTQSPATLSLSPGERATLSCKASKRVTTYVSWYQQKPGQAPRLLIYGASNRYLGIPARFSGSGSGTDFTLTISSLEPEDFAVYYCSQSYNYPYTFGQGTKLEIK","plasma CGRP 4 months after treatment cessation (V2), median (IQR)",[9],34.3 pg/mL
same,"plasma CGRP at last injection (V1), median (IQR)",[9],29.4 pg/mL
